Test results as given in PubChem BioAssay (NCI).
“And” between values parts separate entries of the source, which are not always exact repeats. Identical values can stand only once.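 1) Cells in 96-well plates. 2) Compound, 48 h, 5 concentrations. 3) Linear interpolation between surrounding doses. 4) Unreached endpoint = highest concentration. GI50 is the concentration that inhibits growth by half. TGI: total growth inhibition.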

Tests used:
Test in all cases: inhibition of tumour cell growth, NCI panel, 48 h
786-0 renal = system: 786-0 renal
A498 renal = system: A498 renal
A549 NSCLC = system: A549 NSCLC
ACHN renal = system: ACHN renal
BT-549 breast = system: BT-549 breast
CAKI-1 renal = system: CAKI-1 renal
CCRF-CEM leukemia = system: CCRF-CEM leukemia
COLO 205 colon = system: COLO 205 colon
DU-145 prostate = system: DU-145 prostate
EKVX NSCLC = system: EKVX NSCLC
HCC-2998 colon = system: HCC-2998 colon
HCT-116 colon = system: HCT-116 colon
HCT-15 colon = system: HCT-15 colon
HL-60(TB) leukemia = system: HL-60(TB) leukemia
HOP-62 NSCLC = system: HOP-62 NSCLC
HOP-92 NSCLC = system: HOP-92 NSCLC
HS 578T breast = system: HS 578T breast
HT29 colon = system: HT29 colon
IGROV1 ovarian = system: IGROV1 ovarian
K-562 leukemia = system: K-562 leukemia
KM12 colon = system: KM12 colon
LOX IMVI melanoma = system: LOX IMVI melanoma
M14 melanoma = system: M14 melanoma
MALME-3M melanoma = system: MALME-3M melanoma
MCF7 breast = system: MCF7 breast
MDA-MB-231 breast = system: MDA-MB-231 breast
MDA-MB-435 = system: MDA-MB-435
MDA-N = system: MDA-N
MOLT-4 leukemia = system: MOLT-4 leukemia
NCI-H226 lung = system: NCI-H226 lung
NCI-H23 lung = system: NCI-H23 lung
NCI-H460 lung = system: NCI-H460 lung
NCI-H522 lung = system: NCI-H522 lung
NCI/ADR-RES ovarian = system: NCI/ADR-RES ovarian
OVCAR-3 ovarian = system: OVCAR-3 ovarian
OVCAR-4 ovarian = system: OVCAR-4 ovarian
OVCAR-5 ovarian = system: OVCAR-5 ovarian
OVCAR-8 ovarian = system: OVCAR-8 ovarian
PC-3 prostate = system: PC-3 prostate
RPMI-8226 leukemia = system: RPMI-8226 leukemia
RXF 393 renal = system: RXF 393 renal
SF-268 CNS = system: SF-268 CNS
SF-295 CNS = system: SF-295 CNS
SF-539 CNS = system: SF-539 CNS
SK-MEL-2 melanoma = system: SK-MEL-2 melanoma
SK-MEL-28 melanoma = system: SK-MEL-28 melanoma
SK-MEL-5 melanoma = system: SK-MEL-5 melanoma
SK-OV-3 ovarian = system: SK-OV-3 ovarian
SN12C renal = system: SN12C renal
SNB-19 CNS = system: SNB-19 CNS
SNB-75 CNS = system: SNB-75 CNS
SR leukemia = system: SR leukemia
SW-620 colon = system: SW-620 colon
T-47D breast = system: T-47D breast
TK-10 renal = system: TK-10 renal
U251 CNS = system: U251 CNS
UACC-257 melanoma = system: UACC-257 melanoma
UACC-62 melanoma = system: UACC-62 melanoma
UO-31 renal = system: UO-31 renal

Compound: CC1=CC(C)C(C)N(CC2=NCCN2)c2ccccc21 (centres undefined)
- TGI (786-0 renal): > 100 µM
- TGI (A498 renal): > 100 µM
- TGI (A549 NSCLC): > 100 µM
- TGI (ACHN renal): > 100 µM
- TGI (BT-549 breast): > 100 µM
- TGI (CAKI-1 renal): > 100 µM
- TGI (CCRF-CEM leukemia): > 100 µM
- TGI (COLO 205 colon): 32.3 µM
- TGI (DU-145 prostate): > 100 µM
- TGI (EKVX NSCLC): > 100 µM
- TGI (HCC-2998 colon): 33.9 µM
- TGI (HCT-116 colon): > 100 µM
- TGI (HCT-15 colon): > 100 µM
- TGI (HL-60(TB) leukemia): > 89.3 µM
- TGI (HOP-62 NSCLC): > 100 µM
- TGI (HOP-92 NSCLC): 45.6 µM
- TGI (HS 578T breast): > 100 µM
- TGI (HT29 colon): 45.8 µM
- TGI (IGROV1 ovarian): > 100 µM
- TGI (K-562 leukemia): > 100 µM
- TGI (KM12 colon): > 100 µM
- TGI (LOX IMVI melanoma): > 100 µM
- TGI (M14 melanoma): 32.7 µM
- TGI (MALME-3M melanoma): 44.6 µM
- TGI (MCF7 breast): > 100 µM
- TGI (MDA-MB-231 breast): > 100 µM
- TGI (MDA-MB-435): > 100 µM
- TGI (MDA-N): > 100 µM
- TGI (MOLT-4 leukemia): > 100 µM
- TGI (NCI-H226 lung): > 100 µM
- TGI (NCI-H23 lung): > 100 µM
- TGI (NCI-H460 lung): > 100 µM
- TGI (NCI-H522 lung): > 100 µM
- TGI (NCI/ADR-RES ovarian): > 100 µM
- TGI (OVCAR-3 ovarian): > 100 µM
- TGI (OVCAR-4 ovarian): > 100 µM
- TGI (OVCAR-5 ovarian): > 100 µM
- TGI (OVCAR-8 ovarian): > 100 µM
- TGI (PC-3 prostate): > 100 µM
- TGI (RPMI-8226 leukemia): > 100 µM
- TGI (RXF 393 renal): > 89.9 µM
- TGI (SF-268 CNS): > 100 µM
- TGI (SF-295 CNS): > 100 µM
- TGI (SF-539 CNS): > 100 µM
- TGI (SK-MEL-2 melanoma): > 92.1 µM
- TGI (SK-MEL-28 melanoma): 38.5 µM
- TGI (SK-MEL-5 melanoma): 36.4 µM
- TGI (SK-OV-3 ovarian): > 100 µM
- TGI (SN12C renal): > 100 µM
- TGI (SNB-19 CNS): > 100 µM
- TGI (SNB-75 CNS): > 85.5 µM
- TGI (SR leukemia): > 82.4 µM
- TGI (SW-620 colon): > 100 µM
- TGI (T-47D breast): > 100 µM
- TGI (TK-10 renal): > 100 µM
- TGI (U251 CNS): > 100 µM
- TGI (UACC-257 melanoma): 37.1 µM
- TGI (UACC-62 melanoma): > 100 µM
- TGI (UO-31 renal): > 100 µM

Compound: O=C(NNC(=O)c1ccccc1S)c1ccccc1S
- GI50 (786-0 renal): 13.4 µM
- TGI (786-0 renal): 25 µM and > 100 µM
- TGI (A498 renal): > 100 µM
- GI50 (A549 NSCLC): 28.7 µM
- TGI (A549 NSCLC): 25 µM and > 100 µM
- TGI (ACHN renal): 25 µM and > 100 µM
- GI50 (BT-549 breast): 16.7 µM
- TGI (BT-549 breast): 25 µM and > 100 µM
- GI50 (CAKI-1 renal): 5.51 µM
- TGI (CAKI-1 renal): 25 µM and > 100 µM
- GI50 (CCRF-CEM leukemia): 1.85 µM
- TGI (CCRF-CEM leukemia): 25 µM and 12.2 µM
- GI50 (COLO 205 colon): 28.2 µM
- TGI (COLO 205 colon): 25 µM and > 100 µM
- TGI (DU-145 prostate): 25 µM and > 100 µM
- GI50 (EKVX NSCLC): 52.2 µM
- TGI (EKVX NSCLC): 25 µM and > 100 µM
- TGI (HCC-2998 colon): > 100 µM
- GI50 (HCT-116 colon): 8.17 µM
- TGI (HCT-116 colon): 25 µM and 82.1 µM
- GI50 (HCT-15 colon): 7.97 µM
- TGI (HCT-15 colon): 25 µM and > 100 µM
- GI50 (HL-60(TB) leukemia): 3.12 µM
- TGI (HL-60(TB) leukemia): 24.6 µM and 17.6 µM
- GI50 (HOP-62 NSCLC): 21 µM
- TGI (HOP-62 NSCLC): 25 µM and 68.3 µM
- GI50 (HOP-92 NSCLC): > 100 µM
- TGI (HOP-92 NSCLC): > 100 µM
- TGI (HS 578T breast): > 100 µM
- GI50 (HT29 colon): 31.3 µM
- TGI (HT29 colon): 25 µM and > 100 µM
- GI50 (IGROV1 ovarian): 16.9 µM
- TGI (IGROV1 ovarian): 22.5 µM and > 100 µM
- GI50 (K-562 leukemia): 5.4 µM
- TGI (K-562 leukemia): 25 µM and > 100 µM
- GI50 (KM12 colon): 37.3 µM
- TGI (KM12 colon): 25 µM and > 100 µM
- TGI (LOX IMVI melanoma): 25 µM and > 100 µM
- GI50 (M14 melanoma): 23.3 µM
- TGI (M14 melanoma): 25 µM and > 100 µM
- GI50 (MALME-3M melanoma): 54.3 µM
- TGI (MALME-3M melanoma): 25 µM and > 100 µM
- TGI (MCF7 breast): > 100 µM
- TGI (MDA-MB-231 breast): > 100 µM
- GI50 (MDA-MB-435): 33.2 µM
- TGI (MDA-MB-435): 25 µM and > 100 µM
- GI50 (MDA-N): 22.3 µM
- TGI (MDA-N): 25 µM and > 100 µM
- GI50 (MOLT-4 leukemia): 3.58 µM
- TGI (MOLT-4 leukemia): 25 µM and > 100 µM
- GI50 (NCI-H226 lung): 25.2 µM
- TGI (NCI-H226 lung): 25 µM and > 100 µM
- GI50 (NCI-H23 lung): 20.8 µM
- TGI (NCI-H23 lung): 25 µM and > 100 µM
- GI50 (NCI-H460 lung): 0.123 µM
- TGI (NCI-H460 lung): 25 µM and > 100 µM
- GI50 (NCI-H522 lung): 5.34 µM
- GI50 (NCI/ADR-RES ovarian): 25.9 µM
- TGI (NCI/ADR-RES ovarian): 25 µM and > 100 µM
- GI50 (OVCAR-3 ovarian): 16.1 µM
- TGI (OVCAR-3 ovarian): 25 µM and 65.4 µM
- GI50 (OVCAR-4 ovarian): 28 µM
- TGI (OVCAR-4 ovarian): 25 µM and > 100 µM
- GI50 (OVCAR-5 ovarian): 68.2 µM
- TGI (OVCAR-5 ovarian): 25 µM and > 100 µM
- TGI (OVCAR-8 ovarian): 25 µM and > 100 µM
- TGI (PC-3 prostate): > 100 µM
- GI50 (RPMI-8226 leukemia): 9.24 µM
- TGI (RPMI-8226 leukemia): 25 µM and > 100 µM
- GI50 (RXF 393 renal): 8.74 µM
- TGI (RXF 393 renal): 25 µM and > 100 µM
- GI50 (SF-268 CNS): 16.6 µM
- TGI (SF-268 CNS): 25 µM and > 100 µM
- GI50 (SF-295 CNS): 21.8 µM
- TGI (SF-295 CNS): 25 µM and > 100 µM
- GI50 (SF-539 CNS): 37.1 µM
- TGI (SF-539 CNS): 25 µM and > 100 µM
- TGI (SK-MEL-2 melanoma): > 100 µM
- GI50 (SK-MEL-28 melanoma): 35.3 µM
- TGI (SK-MEL-28 melanoma): > 100 µM
- GI50 (SK-MEL-5 melanoma): 34.2 µM
- TGI (SK-MEL-5 melanoma): 25 µM and > 100 µM
- GI50 (SK-OV-3 ovarian): 64.8 µM
- TGI (SK-OV-3 ovarian): > 100 µM
- GI50 (SN12C renal): 25.9 µM
- TGI (SN12C renal): 25 µM and > 100 µM
- GI50 (SNB-19 CNS): 59.9 µM
- TGI (SNB-19 CNS): 25 µM and > 100 µM
- GI50 (SNB-75 CNS): 27.9 µM
- TGI (SNB-75 CNS): 25 µM and > 100 µM
- GI50 (SR leukemia): 3.37 µM
- TGI (SR leukemia): 25 µM and 15.4 µM
- GI50 (SW-620 colon): 8.09 µM
- TGI (SW-620 colon): 25 µM and > 100 µM
- GI50 (T-47D breast): 6.88 µM
- TGI (T-47D breast): 25 µM and > 100 µM
- GI50 (TK-10 renal): > 100 µM
- TGI (TK-10 renal): > 100 µM
- GI50 (U251 CNS): 31.8 µM
- TGI (U251 CNS): 25 µM and > 100 µM
- GI50 (UACC-257 melanoma): 2.57 µM
- TGI (UACC-257 melanoma): 25 µM and > 100 µM
- GI50 (UACC-62 melanoma): 27.5 µM
- TGI (UACC-62 melanoma): 25 µM and > 100 µM
- TGI (UO-31 renal): > 100 µM
